Read-outs that look alike come from different tables or passages of the source.

The target of this assay is P2X7 receptor (Homo sapiens (Human), UniProt Q99572). The assay is described as follows: P2X7 antagonism in human PBMCs: IL-1β release (ELISA) after LPS + Bz-ATP. Particulars: LPS 30 ng/ml + 0.5 mM Bz-ATP; for remaining activity at 10 µM: read-out: PBMC 10 μM (% control). The assay is classed as cell-based. The method, then:
Human blood was collected using a blood donor program. […] Cells were incubated for an additional 1.5 hours. […] Data are analyzed and graphed on Graphpad Prism 5. […] The IC50 for each compound is then uploaded into 3DX.

Where [1] appears, read: P2X7, Table 3 (additional runs), 10 μM compound.

Sequence of P2X7 receptor (Q99572 whole entry): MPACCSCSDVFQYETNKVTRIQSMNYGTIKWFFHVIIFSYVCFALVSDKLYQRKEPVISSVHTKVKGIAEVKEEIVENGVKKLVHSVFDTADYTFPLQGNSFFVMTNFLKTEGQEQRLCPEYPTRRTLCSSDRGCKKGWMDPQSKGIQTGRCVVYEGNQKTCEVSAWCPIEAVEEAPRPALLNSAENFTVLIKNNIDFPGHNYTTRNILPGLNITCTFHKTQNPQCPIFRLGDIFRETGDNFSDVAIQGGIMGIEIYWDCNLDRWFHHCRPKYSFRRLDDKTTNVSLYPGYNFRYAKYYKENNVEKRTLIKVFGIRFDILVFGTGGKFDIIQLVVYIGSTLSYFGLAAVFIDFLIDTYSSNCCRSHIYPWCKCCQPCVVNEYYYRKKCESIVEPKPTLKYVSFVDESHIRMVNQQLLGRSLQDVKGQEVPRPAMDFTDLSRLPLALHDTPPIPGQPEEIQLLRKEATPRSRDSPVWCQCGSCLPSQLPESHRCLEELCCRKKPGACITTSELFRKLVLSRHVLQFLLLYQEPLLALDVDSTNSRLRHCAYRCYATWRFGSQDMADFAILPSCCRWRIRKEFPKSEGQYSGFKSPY

Turning to `Cc1nc2c(c(-c3ccn[nH]3)n1)C[C@H](C)N(C(=O)c1ccc(Cl)cc1F)C2` (single isomer, unassigned) [Example 89, (S*)-(4-chloro-2-fluorophenyl)(2,6-dimethyl-4-(1H-pyrazol-5-yl)-5,6-dihydropyrido[3,4-d]pyrimidin-7(8H)-yl)methanone], where the note is “P2X7, Table 2, 10 μM compound”, the remaining activity at 10 µM is -16.4%.

In the case of `Cc1nc2c(c(-c3ccn[nH]3)n1)C[C@@H](C)N(C(=O)c1cccc(OC(F)(F)F)c1)C2` (single isomer, unassigned) [Example 141, (R*)-(2,6-dimethyl-4-(1H-pyrazol-5-yl)-5,6-dihydropyrido[3,4-d]pyrimidin-7(8H)-yl)(3-(trifluoromethoxy)phenyl)methanone], the remaining activity at 10 µM under setting [1] was -0.6%.

In the case of `Cc1nc2c(c(-c3ccn[nH]3)n1)C[C@@H](C)N(C(=O)c1cccc(F)c1Cl)C2` (single isomer, unassigned) [Example 144, (R*)-(2-chloro-3-fluorophenyl)(2,6-dimethyl-4-(1H-pyrazol-5-yl)-5,6-dihydropyrido[3,4-d]pyrimidin-7(8H)-yl)methanone], the remaining activity at 10 µM under setting [1] was -18.9%.

On to `Cc1nc2c(c(-c3ccn[nH]3)n1)CC(C)N(C(=O)c1cccc(OC(F)(F)F)c1)C2` (stereo not shown) [Example 140, (2,6-dimethyl-4-(1H-pyrazol-5-yl)-5,6-dihydropyrido[3,4-d]pyrimidin-7(8H)-yl)(3-(trifluoromethoxy)phenyl)methanone], for which the “PBMC 10 μM (% control)” value (Table 3 (additional runs), 10 μM compound) worked out at 52.5 % control.

The record behind these values is patent US10323032B2, “P2X7 Modulators” (Janssen Pharmaceutica NV, priority 2013, dated 2019).
